Experimental data taken from patent US11850266B2, “Cardiomyocytes and compositions and methods for producing the same” (President and Fellows of Harvard College, priority 2019, dated 2023).

How the values were obtained:
Assay type in all cases: cell-based, human
[1] = tested on: iPSC-derived cardiomyocytes; experiment: Flow cytometry (TNNT2+ purity, MFI of TNNT2 and Kir2.1) and cell counts
Protocol: To prepare for differentiation, iPSCs were plated at a density between 20,000 to 80,000 cells (depending on the cell line) per well of a 12-well plate at four days prior to onset of differentiation. Cells were differentiated according to the protocol previously described by Lian et al. with some modifications (FIG. 1A) (1). Basal media was changed from StemFlex to RPMI/B27 on day 0 of differentiation. The GSK3 inhibitor, CHIR99021 (6 μM), was added for 48 hours from day 0 to day 2 of differentiation when cells were approximately 70-80% confluent. The Wnt antagonist IWP4 (5 μM) was added from days 2 to 4 of differentiation. Insulin (10 μg/ml) was added to the media starting on day 7 of differentiation, and media was changed every 2-3 days. In general, higher purity (TNNT2+) cardiomyocytes were observed when beating initiated prior to day 10 of differentiation, therefore only batches with onset of beating between days 7-10 of differentiation were included in this study. Beating cardiomyocytes were treated with Torin1 (200 nM, unless otherwise noted) or vehicle (0.02% dimethylsulfoxide (DMSO)) beginning at ˜2 days after onset of beating for 7 days (media changed with fresh Torin1 or DMSO every 2-3 days), unless otherwise noted. After Torin1 treatment, media was switched back to RPMI/B27/insulin and maintained with media change every 2-3 days until endpoint assay. In a few assays, fatty acids were added in the form of chemically defined lipids (Gibco) diluted 1:1000 simultaneous with Torin1 treatment. In some other assays, fetal bovine serum (10% FBS) was added to cells after completion of Torin treatment for 2-4 days.
Cells were dissociated and 5×10^5 to 1×10^6 cells were used per condition. For cell cycle analysis, 5×10^5 cells per condition were fixed in 70% cold ethanol for at least 2 hours to overnight at −20 degrees C. Cells were stained first with AlexaFluor 647-TNNT2 in Permeabilization Buffer (Thermo) then with Hoechst 33342 (2 μg/ml) and pyronin Y (4 μg/ml) for 20 minutes to distinguish between cells in G0, G1, and S-G2-M phases. For other stains, cells were fixed in eBioscience Intracellular Fixation buffer for 30 minutes followed washing twice in eBioscience Permeabilization Buffer and stained with the appropriate primary antibody (Table 2) in eBioscience FACS Staining buffer for 30-60 minutes. If a secondary antibody was used, cells were incubated with the appropriate secondary antibody (Table 2) for 30-60 minutes. The geometric mean fluorescence intensity (MFI) was quantified for TNNT2 and Kir2.1 antibodies. Data were acquired via a BD LSRII instrument and analyzed using FlowJo software.

[2] = tested on: iPSC-derived cardiomyocytes; experiment: NanoString PanCancer Pathways Panel gene expression; details: Torin1 200 nM 1 week, Gibco iPS-CMs, FIG. 7G
Protocol: Gene expression analysis was performed using NanoString technology which employs an optical counting method of fluorescently barcoded RNA according to the manufacturer's instructions. The nCounter PanCancer Pathways Panel was selected to provide a multiplex analysis of 770 genes from several growth and cell cycle-related pathways, including cell cycle, apoptosis, Wnt, transcriptional regulation, PI3K, and TGF-β. This panel was selected to provide a multiplex analysis of pathways associated with cell cycle regulation, metabolism, quiescence and senescence. Cardiomyocytes were differentiated in a 12-well plate then cardiomyocytes were treated with Torin1 (200 nM) or vehicle (DMSO) starting ˜2 days after onset of beating for 1 week (days 9-16 for this batch). After completion of Torin1 treatment, cells were switched back to maintenance media (RPMI+B27+insulin). Beginning on day 18 of differentiation, 10% fetal bovine serum (FBS) was added to half of the wells per treatment group and FBS treatment was continued for 4 days (until day 22 of differentiation). […] Data were analyzed using nSolver 4.0 software with the Advanced Analysis Module 2.0 with normalization to internal housekeeping genes including in the panel to perform unsupervised hierarchical clustering, differential expression analyses, and pathway scoring using the R statistical package.

[3] = tested on: BJRiPS-derived cardiomyocytes; experiment: Example 3 preliminary qPCR of maturation genes in BJRiPS-derived cardiomyocytes
Protocol: The BJRiPS cell line was used to generate preliminary data. BJRiPS cells were differentiated into cardiomyocytes according to previously published protocols (6). After the onset of beating (around day 10), cardiomyocytes were treated with vehicle (DMSO) or different concentrations of rapamycin, Torin1, or Torin2 for different time periods. Beating rate was counted manually. Some cells were harvested after 5-7 days of treatment for flow cytometry analysis. Other cells were harvested after 7 days of treatment for qPCR.

[4] = tested on: iPSC-derived cardiomyocytes; experiment: Immunocytochemistry, sarcomere length; details: versus control, BJRiPS-CMs, FIG. 2H
Protocol: Cells were dissociated from 12 well plates after differentiation with 0.1% trypsin-EDTA and replated into Geltrex-coated 4-chamber microscope slides. Cells were fixed in 4% paraformaldehyde then permeabilized with 0.5% Triton X-100. After blocking with 5% BSA, cells were incubated with primary antibodies (Table 2) for 30 minutes at room temperature followed by incubation with the secondary antibody (Table 2) for 45 minutes at room temperature in the dark. After washing with phosphate buffered saline (PBS), Vectashield mounting agent with DAPI (for slides) or DAPI (for plates) was applied and cells were visualized with a confocal microscope (Zeiss LSM 700). Muscular thin films (MTFs) were stained in a similar manner except DAPI (1 μg/ml) was applied for 5 minutes before rinsing and transferring MTFs into PBS until imaging.

[5] = Torin1 10, 50, 200 nM, days 11-18, FIG. 32

CCC(=O)N1CCN(c2ccc(-n3c(=O)ccc4cnc5ccc(-c6cnc7ccccc7c6)cc5c43)cc2C(F)(F)F)CC1 [Torin1]
Torin1-induced increase in TNNT2 MFI after 10% FBS ([1]; 10% FBS 2 days after completion of Torin1, UCSD-CMs, FIG. 2I): reversed | TNNT2 MFI with shorter (5 days) or later (starting 10 days after initiation of beating) treatment ([1]; FIGS. 10, 11): beneficial effects on TNNT2 MFI | MFI of extracellular Kir2.1 by flow cytometry ([1]; Torin1 7 days, BJRiPS, FIG. 4B): significantly increased | TNNT2 MFI by flow cytometry ([1]; Torin1 7 days, Gibco iPS-CMs, FIG. 2C): dose-dependent increase | absolute numbers of cells per well ([1]; Torin1 from day 9, 12 well plate, BJRiPS-CMs, FIG. 1C): non-significant trend toward decreased absolute numbers of cells per well | purity of TNNT2+ cells ([1]; non-significant trend, Gibco iPS-CMs, FIG. 1D): increased purity of TNNT2+ cells | TNNT2 protein by mean fluorescence intensity (flow cytometry) ([1]; three cell lines (BJRiPS, GCaMP, Gibco), FIG. 18E): significant increase in protein expression of TNNT2 | expression of interleukin-8 (IL8) and SPP1 (osteopontin) [2]: significant decrease in expression | RNA expression of ryanodine receptor (RyR) and SCN5a ([3]; FIG. 32): trend toward increased RNA expression | TNNI3 gene expression increase ([3]; Torin1 200 nM (highest dose tested), FIG. 30): ~10 fold | RNA expression of TNNT2, TNNI3, MYH6, MYH7 ([3]; Torin1 10, 50, 200 nM, days 11-18, FIG. 30): increased RNA expression of these proteins in a dose dependent manner | KCNJ2 expression [3, 5]: trend toward a dose-dependent increase | ion channel gene expression (KCNJ2, HCN4, SCN5a, RYR2, CACNA1c, SERCA2a) [3, 5]: Ion channel gene expression increased | NPPB (BNP) mRNA expression ([3]; Torin1 10, 50, 200 nM, days 11-18, FIG. 33): increased | PGC1-alpha (PPARGC1a) mRNA expression ([3]; Torin1 10, 50, 200 nM, days 11-18, FIG. 35): increased expression | REST/NRSF expression ([3]; dose-dependent, Torin1 10, 50, 200 nM, FIG. 34): increases gene expression for REST | RNA expression of markers of maturation including TNNI3 and KCNJ2 ([3]; preliminary data, after differentiation): increased RNA expression | sarcomere length [4]: no differences
